From US12673963B2, “Cationic lipids for lipid nanoparticle delivery of therapeutics to hepatic stellate cells” (GENEVANT SCIENCES GMBH, priority 2020, dated 2026)

Tests used:
mouse target mRNA = test: Activity assessment of HSC-LNP: liver target mRNA knock-down (QuantiGene) after IV injection of siRNA LNP (Table 1); type: in vivo, female Balb/C mice; settings: dose 0.025 mg/kg IV, 48h post-dose, relative to PBS control
Experimental: (§1) The lipid solution contained 4 components: a PEG-conjugated lipid, an ionizable lipid (e.g., a silicon lipid), cholesterol, and a phospholipid (e.g., DSPC). Lipid stocks were prepared using the lipid identities and molar ratios as described. The siRNA was diluted in 100 mM acetate, pH 4 buffer to prepare lipid nanoparticles (LNP) at a total lipid to siRNA weight ratio of approximately 10:1 to 20:1. Equal volumes of the lipid and nucleic acid solutions were blended at a flow rate of 400 mL/min through a T-connector, and diluted into PBS, pH 7.4. The ethanol was then removed and the external buffer replaced with Tris/NaCl buffer by dialysis. Following dialysis, the formulations were concentrated using VivaSpin concentrator units (MWCO 100,000) and filtered through a 0.2 μm pore sterile filter. Nucleic acid concentration was determined by the RiboGreen assay. Particle size and polydispersity were determined using a Malvern Nano Series Zetasizer.
(§2) Just prior to injection, the siRNA LNP stocks were filtered and diluted down to the required dosing concentration. At 48h post-dose (terminal timepoint), the animals were euthanized with a lethal dose of ketamine/xylazine. Half the left lateral lobe of the liver was collected into 1.5 mL RNALater and stored at 2-8° C. overnight. The next day, an approximately 20-25 mg piece of liver was homogenized and the liver lysate used in a QuantiGene Assay, testing for relative levels of mouse target mRNA and GAPDH expression. Data from each animal was normalized to the liver weight used in the assay, and then relative to the GAPDH signal; data is reported as the average % knock-down of each group (where the PBS control group is 100% gene expression, 0% knock-down).

reelin mRNA = test: Reelin mRNA knock-down following IV administration of the LNP formulations (FIGS. 1-4); type: in vivo; settings: Balb/C mice (n=4); for dose giving equivalent potency in reelin mRNA knock-down (FIG. 1) / reelin mRNA knock-down in HSCs, specificity for HSCs (FIG. 2): 48 hours following IV administration
Experimental: as §1
as §2, with “Generally, the LNP formulations were injected intravenously at 0.025 mg/kg to female Balb/C mice (5-8 weeks old) to measure activity of the HSC-LNP. Just” for “Just”

[1] = Clearance of LNP from mouse liver, biodegradable functionality (FIG. 7); type: in vivo
[2] = Duration of action of LNP with minimally modified siRNA (FIG. 6); type: in vivo
[3] = Tolerability assessment of HSC-LNP: liver enzyme levels (FIGS. 5A-5B); type: in vivo, female Balb/C mice; settings: dose range up to 3 mg/kg IV
Experimental: Generally, the LNP formulations were injected intravenously at ˜0.03 to 3 mg/kg to female Balb/C mice (5-8 weeks old) to assess tolerability of the HSC-LNP. Just prior to injection, the siRNA LNP stocks were filtered and diluted down to the required dosing concentration. At 2h post-treatment, blood was collected via tail nicks and processed to plasma (for cytokine analysis by ELISA). At the terminal timepoint (24 h post-dose), blood was collected by cardiac puncture (target ≥800 μL) and sent to IDEXX for CRES 15 panel analysis (CBC/Diff & Clin Chem analysis).
Briefly, blood (˜300 uL) was collected into EDTA microtainer tubes, inverted 10× to mix the K2EDTA whole blood sample, and immediately stored at 4° C. to await same-day shipment to for hematology analysis. The remaining blood volume (˜500 uL) was collected into serum separator tubes and inverted 5× to mix the SST sample, then allowed to clot for 1-1.5h at room temp. The blood samples were centrifuged, and serum was collected for clinical chemistry analysis.

[4] = 24 hours following IV administration

CCCCC/C=C\CCCO[Si](C)(CCCCN1CCC2(CC1)CCN(CCCC[Si](C)(OCCC/C=C\CCCCC)OCCC/C=C\CCCCC)CC2)OCCC/C=C\CCCCC [Compound 42]
Percent knock-down (mouse target mRNA; Formulation 1.5:50 (DSPC)): 28%

CCCCC/C=C\CCCC(CCC/C=C\CCCCC)C(CCC/C=C\CCCCC)OC(=O)CCCCCN(C)C (stereo not shown) [Compound 100, reference compound]
dose required to achieve equivalent reelin mRNA knock-down (FIG. 4) (reelin mRNA; [4]): ~1 mg/kg
dose giving equivalent potency in reelin mRNA knock-down (FIG. 1) (reelin mRNA): 0.1 mg/kg

CCCCC/C=C\CCCO[Si](C)(CCCCN1CCC2(CC1)CCN(CCCC[Si](C)(OCCC/C=C\CCCCC)OCCC/C=C\CCCCC)CC2)OCCC/C=C\CCCCC [Compound 14]
Percent knock-down (mouse target mRNA; Formulation 1.1:55 (DOPE)): 18%

CCCCC/C=C\CCCC(CCC/C=C\CCCCC)C(CCC/C=C\CCCCC)OC(=O)CCCCN(C)C (stereo not shown) [Compound 101, reference compound]
reelin mRNA knock-down in HSCs, specificity for HSCs (FIG. 2) (reelin mRNA): no knock-down in HSCs

CCCCC/C=C\CCCO[SiH](CCCCN1CCN(C)CCN(CCCC[Si](C)(OCCC/C=C\CCCCC)OCCC/C=C\CCCCC)CC1)OCCC/C=C\CCCCC [Compound 38]
Percent knock-down (mouse target mRNA; Formulation 1.5:50 (DSPC)): 1%

CCCCC/C=C\CCCO[Si](C)(CCCCN(CC)CCCN(CC)CCCC[Si](C)(OCCC/C=C\CCCCC)OCCC/C=C\CCCCC)OCCC/C=C\CCCCC [Compound 29]
Percent knock-down (mouse target mRNA; Formulation 1.1:55 (DSPC)): 29%

CCCCC/C=C\CCCO[Si](C)(CCCCN1C[C@H]2CCCN(CCCC[Si](C)(OCCC/C=C\CCCCC)OCCC/C=C\CCCCC)[C@H]2C1)OCCC/C=C\CCCCC [Compound 43]
Percent knock-down (mouse target mRNA; Formulation 1.5:50 (DSPC)): 0%

CCCCC/C=C\CCCO[Si](C)(CCCCN1CCC2(CC1)CCN(CCCC[Si](C)(OCCC/C=C\CCCCC)OCCC/C=C\CCCCC)C2)OCCC/C=C\CCCCC [Compound 39]
Percent knock-down (mouse target mRNA; Formulation 1.5:50 (DSPC)): 81%

CCCCC/C=C\CCCO[Si](C)(CCCCN(C)CCCN(C)CCCC[Si](C)(OCCC/C=C\CCCCC)OCCC/C=C\CCCCC)OCCC/C=C\CCCCC [Compound 12, N1,N3-bis(4-(bis(((Z)-dec-4-en-1-yl)oxy)(methyl)silyl)butyl)-N1,N3-dimethylpropane-1,3-diamine]
clearance of LNP from mouse liver (FIG. 7) [1]: cleared rapidly from mouse liver
duration of action (FIG. 6) [2]: good duration of action
dose at which maximum knock-down in HSCs is achieved (FIG. 3) (reelin mRNA; [4]): about 0.03 mg/kg
dose required to achieve equivalent reelin mRNA knock-down (FIG. 4) (reelin mRNA; [4]): 0.03 mg/kg
dose giving equivalent potency in reelin mRNA knock-down (FIG. 1) (reelin mRNA): 0.025 mg/kg
reelin mRNA knock-down in HSCs, specificity for HSCs (FIG. 2) (reelin mRNA): high specificity for HSCs
tolerability: liver enzyme levels (FIGS. 5A-5B) [3]: no significant increases in liver enzyme levels
